What was measured:
[1] = Subacute toxicity in Kunming mouse assessed as dyspnoea at 50 mg/kg, IG administered via gavage every other day and measured after 14 days; assay type: organism-based; settings: in vivo, po, 336 h, time 14 day
[2] = AUC(0 to last) in Sprague-Dawley rat at 2 mg/kg, iv measured at 5 to 600 min by LC-MS/MS analysis; assay type: ADME, organism-based; design: dose 2 mg/kg, time upper 600 min, time lower 5 min, route iv; settings: in vivo
[3] = Acute toxicity in Kunming mouse assessed as effect on alopecia at 1000 mg/kg, IG administered as single dose and measured after 7 days; assay type: organism-based; settings: in vivo, po, 168 h, time 7 day
[4] = Acute toxicity in Kunming mouse assessed as effect on body weight at 1000 mg/kg, IG administered as single dose and measured after 7 days; assay type: organism-based; settings: in vivo, po, 168 h, time 7 day
[5] = Acute toxicity in Kunming mouse assessed as effect on dyspnea at 1000 mg/kg, IG administered as single dose and measured after 7 days; assay type: organism-based; settings: in vivo, po, 168 h, time 7 day
[6] = tested on: Human immunodeficiency virus 1; assay: Antiviral activity against NNRTI-resistant HIV-1 harboring F227L and V106A double mutant infected in human MT4 cells assessed as protection against virus-induced cytopathic effect incubated for 5 days by MTT assay; assay type: functional, organism-based; settings: Human immunodeficiency virus 1, MT4, 120 h
[7] = Clearance in Sprague-Dawley rat at 2 mg/kg, iv measured at 5 to 600 min by LC-MS/MS analysis; assay type: ADME, organism-based; settings: in vivo, time 5-600 min
[8] = Acute toxicity in Kunming mouse assessed as effect on animal death at 1000 mg/kg, IG administered as single dose and measured after 7 days; assay type: organism-based; settings: in vivo, po, 168 h, time 7 day
[9] = MRT (0 to infinity) in Sprague-Dawley rat at 2 mg/kg, iv measured at 5 to 600 min by LC-MS/MS analysis; assay type: ADME, organism-based; settings: in vivo, time 5-600 min
[10] = Cytotoxicity against human MT4 cells assessed as reduction in cell viability incubated for 5 days by MTT assay; assay type: toxicity, cell-based; settings: time 5 day
[11] = Subacute toxicity in Kunming mouse assessed as lethargy at 50 mg/kg, IG administered via gavage every other day and measured after 14 days; assay type: organism-based; settings: in vivo, po, 336 h, time 14 day
[12] = Subacute toxicity in Kunming mouse assessed as histopathological change in heart at 50 mg/kg, IG administered via gavage every other day and measured after 14 days by H&E staining based analysis; assay type: organism-based; settings: in vivo, po, 336 h, time 14 day
[13] = AUC(0 to infinity) in Sprague-Dawley rat at 2 mg/kg, iv measured at 5 to 600 min by LC-MS/MS analysis; assay type: ADME, organism-based; design: time 5-600 min, dose 2 mg/kg, route iv; settings: in vivo
[14] = Acute toxicity in Kunming mouse assessed as tolerance at 1000 mg/kg, IG administered as single dose and measured after 7 days; assay type: organism-based; settings: in vivo, po, 168 h, time 7 day
[15] = Subacute toxicity in Kunming mouse assessed as effect on body weight at 50 mg/kg, IG administered via gavage every other day and measured after 14 days; assay type: organism-based; settings: in vivo, po, 336 h, time 14 day
[16] = Metabolic stability in human liver assessed as intrinsic clearance incubated for 60 mins in the presence of NADPH by LC-MS/MS analysis; assay type: ADME, tissue-based; settings: read-out: CLH
[17] = Subacute toxicity in Kunming mouse assessed as alopecia at 50 mg/kg, IG administered via gavage every other day and measured after 14 days; assay type: organism-based; settings: in vivo, po, 336 h, time 14 day
[18] = Metabolic stability in human liver microsomes assessed as half-life incubated for 60 mins in the presence of NADPH by LC-MS/MS analysis; assay type: ADME, Microsome; settings: liver microsomes
[19] = Subacute toxicity in Kunming mouse assessed as histopathological change in kidney at 50 mg/kg, IG administered via gavage every other day and measured after 14 days by H&E staining based analysis; assay type: organism-based; settings: in vivo, po, 336 h, time 14 day
[20] = Cmax in Sprague-Dawley rat at 10 mg/kg, po measured at 15 to 720 min by LC-MS/MS analysis; assay type: ADME, organism-based; design: dose 10 mg/kg, time 15-720 min, route po; settings: in vivo
[21] = Metabolic stability in human liver microsomes assessed as compound remaining measured after 60 mins in the presence of NADPH by LC-MS/MS analysis; assay type: ADME, Microsome; settings: liver microsomes, read-out: Stability
[22] = AUC (0 to last) in Sprague-Dawley rat at 10 mg/kg, po measured at 15 to 720 min by LC-MS/MS analysis; assay type: ADME, organism-based; design: time upper 720 min, time lower 15 min, dose 10 mg/kg, route po; settings: in vivo
[23] = Half-life in Sprague-Dawley rat at 10 mg/kg, po measured at 15 to 720 min by LC-MS/MS analysis; assay type: ADME, organism-based; settings: in vivo, time 15-720 min
[24] = tested on: Human immunodeficiency virus 1; assay type: functional, organism-based; settings: Human immunodeficiency virus 1, MT4, 120 h
[25] = Metabolic stability in human liver microsomes assessed as intrinsic clearance incubated for 60 mins in the presence of NADPH by LC-MS/MS analysis; settings: liver microsomes
[26] = MRT (0 to infinity) in Sprague-Dawley rat at 10 mg/kg, po measured at 15 to 720 min by LC-MS/MS analysis; assay type: ADME, organism-based; settings: in vivo, time 15-720 min
[27] = Tmax in Sprague-Dawley rat at 10 mg/kg, po measured at 15 to 720 min by LC-MS/MS analysis; assay type: ADME, organism-based; settings: in vivo, time 15-720 min
[28] = tested on: Human immunodeficiency virus 1; assay: Antiviral activity against NNRTI-resistant HIV-1 harboring K103N mutant infected in human MT4 cells assessed as protection against virus-induced cytopathic effect incubated for 5 days by MTT assay; assay type: functional, organism-based; settings: Human immunodeficiency virus 1, MT4, 120 h
[29] = Acute toxicity in Kunming mouse upto 1000 mg/kg, IG administered as single dose and measured after 7 days; assay type: organism-based; settings: in vivo, po, 168 h, time 7 day
[30] = Subacute toxicity in Kunming mouse assessed as histopathological change in lung at 50 mg/kg, IG administered via gavage every other day and measured after 14 days by H&E staining based analysis; assay type: organism-based; settings: in vivo, po, 336 h, time 14 day
[31] = Acute toxicity in Kunming mouse assessed as effect on lethargy at 1000 mg/kg, IG administered as single dose and measured after 7 days; assay type: organism-based; settings: in vivo, po, 168 h, time 7 day
[32] = Acute toxicity in Kunming mouse assessed as effect on anorexia at 1000 mg/kg, IG administered as single dose and measured after 7 days; assay type: organism-based; settings: in vivo, po, 168 h, time 7 day
[33] = tested on: Human immunodeficiency virus 1; assay: Antiviral activity against NNRTI-resistant HIV-1 harboring L100I mutant infected in human MT4 cells assessed as protection against virus-induced cytopathic effect incubated for 5 days by MTT assay; assay type: functional, organism-based; settings: Human immunodeficiency virus 1, MT4, 120 h
[34] = tested on: Human immunodeficiency virus 1; assay type: functional, organism-based; settings: Human immunodeficiency virus 1, MT4, 120 h; remark: listed apart in the source
[35] = Subacute toxicity in Kunming mouse assessed as anorexia at 50 mg/kg, IG administered via gavage every other day and measured after 14 days; assay type: organism-based; settings: in vivo, po, 336 h, time 14 day
[36] = Half-life in Sprague-Dawley rat at 2 mg/kg, iv measured at 5 to 600 min by LC-MS/MS analysis; assay type: ADME, organism-based; settings: in vivo, time 5-600 min
[37] = Subacute toxicity in Kunming mouse assessed as histopathological change in liver at 50 mg/kg, IG administered via gavage every other day and measured after 14 days by H&E staining based analysis; assay type: organism-based; settings: in vivo, po, 336 h, time 14 day
[38] = Volume of distribution in Sprague-Dawley rat at 2 mg/kg, iv measured at 5 to 600 min by LC-MS/MS analysis; assay type: ADME, organism-based; settings: in vivo, time 5-600 min
[39] = Subacute toxicity in Kunming mouse assessed as animal death at 50 mg/kg, IG administered via gavage every other day and measured after 14 days; assay type: organism-based; settings: in vivo, po, 336 h, time 14 day
[40] = tested on: Human immunodeficiency virus 1; assay: microbe, parasite or virus in culture; settings: Human immunodeficiency virus 1, IIIB, MT4, 120 h
Description: Antiviral activity against wild type HIV-1 IIIB infected in human MT4 cells assessed as protection against virus-induced cytopathic effect incubated for 5 days by MTT assay

[41] = Subacute toxicity in Kunming mouse assessed as at 50 mg/kg, po administered every other day and measured after 14 days; assay type: organism-based; settings: in vivo, 336 h, time 14 day
[42] = tested on: Human immunodeficiency virus 1; assay type: functional, organism-based; settings: Human immunodeficiency virus 1, MT4, 120 h; remark: listed apart in the source
[43] = tested on: Human immunodeficiency virus 1; assay: Antiviral activity against NNRTI-resistant HIV-1 harboring E138K mutant infected in human MT4 cells assessed as protection against virus-induced cytopathic effect incubated for 5 days by MTT assay; assay type: functional, organism-based; settings: Human immunodeficiency virus 1, MT4, 120 h
[44] = AUC (0 to infinity) in Sprague-Dawley rat at 10 mg/kg, po measured at 15 to 720 min by LC-MS/MS analysis; assay type: ADME, organism-based; design: dose 10 mg/kg, time upper 720 min, time lower 15 min, route po; settings: in vivo
[45] = Subacute toxicity in Kunming mouse assessed as histopathological change in spleen at 50 mg/kg, IG administered via gavage every other day and measured after 14 days by H&E staining based analysis; assay type: organism-based; settings: in vivo, po, 336 h, time 14 day
[46] = MRT (0 to last) in Sprague-Dawley rat at 2 mg/kg, iv measured at 5 to 600 min by LC-MS/MS analysis; assay type: ADME, organism-based; settings: in vivo, time 5-600 min
[47] = Metabolic stability in human plasma assessed as half-life incubated for 120 mins by LC-MS/MS analysis; assay type: ADME, cell-free
[48] = target: Human immunodeficiency virus type 1 reverse transcriptase (Human immunodeficiency virus 1, UniProt Q72547); assay: Inhibition of HIV-1 reverse transcriptase assessed as assessed as reduction of biotin-dUTP incorporation into […] incubated for 1 hrs by ELISA analysis
[49] = Metabolic stability in human plasma assessed as compound remaining incubated for 120 mins by LC-MS/MS analysis; assay type: ADME, cell-free; settings: read-out: Stability

**Q.** For `CCC(=O)N1CCc2nc(Nc3ccc(C#N)cc3)nc(Oc3c(C)cc(C#N)cc3C)c2C1`, which Activity [1] is on record?
**A.** Non-Toxic

**Q.** And the AUC(0-t) [2]?
**A.** 1730 ng·h/mL

**Q.** And the Activity [3]?
**A.** Non-Toxic

**Q.** What about the Activity [4] of the same compound?
**A.** Non-Toxic

**Q.** What about the Activity [5] of the same compound?
**A.** Non-Toxic

**Q.** What about the EC50 [6] of the same compound?
**A.** 38.8 nM

**Q.** What about the clearance [7] of the same compound?
**A.** 19.4 mL/min/kg

**Q.** And the Activity [8]?
**A.** Non-Toxic

**Q.** What about the MRT inf [9] of the same compound?
**A.** 39.8 min

**Q.** What about the CC50 at 120 h [10] of the same compound?
**A.** 10800 nM

**Q.** And the Activity [11]?
**A.** Non-Toxic

**Q.** And the Activity [12]?
**A.** Non-Toxic

**Q.** And the AUC(0-inf) [13]?
**A.** 1740 ng·h/mL

**Q.** And the Activity [14]?
**A.** Non-Toxic

**Q.** And the Activity [15]?
**A.** Non-Toxic

**Q.** What about the CLint scaled [16] of the same compound?
**A.** 125 mL/min/kg

**Q.** What about the Activity [17] of the same compound?
**A.** Non-Toxic

**Q.** And the half-life [18]?
**A.** 10 min

**Q.** What about the Activity [19] of the same compound?
**A.** Non-Toxic

**Q.** What about the Cmax [20] of the same compound?
**A.** 7.71 ng/mL

**Q.** And the remaining at 1 h [21]?
**A.** 1.6%

**Q.** And the AUC(0-t) [22]?
**A.** 16 ng·h/mL

**Q.** And the half-life [23]?
**A.** 142 min

**Q.** And the EC50 [24]?
**A.** 31 nM

**Q.** What about the microsomal CLint at 1 h [25] of the same compound?
**A.** 138 µL/min/mg

**Q.** And the MRT inf [26]?
**A.** 214 min

**Q.** And the Tmax [27]?
**A.** 30 min

**Q.** What about the EC50 [28] of the same compound?
**A.** 1.88 nM

**Q.** And the Activity [29]?
**A.** Non-Toxic

**Q.** What about the Activity [30] of the same compound?
**A.** Non-Toxic

**Q.** What about the Activity [31] of the same compound?
**A.** Non-Toxic

**Q.** What about the Activity [32] of the same compound?
**A.** Non-Toxic

**Q.** And the EC50 [33]?
**A.** 14.6 nM

**Q.** What about the EC50 [34] of the same compound?
**A.** 10.9 nM

**Q.** And the Activity [35]?
**A.** Non-Toxic

**Q.** What about the half-life [36] of the same compound?
**A.** 56.5 min

**Q.** What about the Activity [37] of the same compound?
**A.** Non-Toxic

**Q.** What about the Vd [38] of the same compound?
**A.** 0.771 L/kg

**Q.** And the Activity [39]?
**A.** Non-Toxic

**Q.** What about the EC50 [40] of the same compound?
**A.** 2.71 nM

**Q.** What about the Activity [41] of the same compound?
**A.** Non-Toxic

**Q.** And the EC50 [42]?
**A.** 14.9 nM

**Q.** What about the EC50 [43] of the same compound?
**A.** 11 nM

**Q.** And the AUC(0-inf) [44]?
**A.** 23.4 ng·h/mL

**Q.** What about the Activity [45] of the same compound?
**A.** Non-Toxic

**Q.** What about the MRT last [46] of the same compound?
**A.** 38.9 min

**Q.** What about the half-life [47] of the same compound?
**A.** > 289 min

**Q.** And the IC50 [48]?
**A.** 70 nM

**Q.** What about the remaining at 2 h [49] of the same compound?
**A.** 97.1%

From ChEMBL document CHEMBL5331107 (J Med Chem, 2023)
